Experimental data published in patent US12528840B2, “Transcription active complex targeting cancer drug from viral protein sequence” (The Regents of the University of California, priority 2020, dated 2026).

These substances were tested on BCBL-1 cells. Details: MTT, compared to Mut d1-1 control peptide.
Excerpt: FIG. 8. Amino acid conservation among different gamma-herpesviral transactivator proteins. […] DE; D substitute to glutamic acid, DS: D substituted for serine. ST; serine substituted for threonine (marked in red).
Amino acid sequence alignment identified homologous protein sequences in other gamma-herpesvirus protein sequence (The Top table in FIG. 8a, also shown in FIG. 2). Based on their alignment, “non-natural” protein sequences were generated by substituting specific amino acids (The peptides are: Wt d1-1, DS 3-1, DE 3-1, and Mut d1-1 (control peptide) from the top to the bottom in the Bottom Table in FIG. 8a). Those four peptides were used in MTT assays in FIG. 8b to examine the effects on cell growth of BCBL-1 […] effusion lymphoma (PEL) cell line. Also tested are three D-amino acid substitutions first two amino acids and c-terminal amino acid (ST d3-1), in comparison with one D-amino acid peptide (N-terminus) (Wt d3-1).

| Substance | killing of BCBL-1 cells in vitro |
| --- | --- |
| d-Arg-KKRR-Ornithine-RRR-B-alanine-LSSILQGLYQL-d-Asp-d Glu [DE 3-1] | killed BCBL-1 cells in vitro at similar efficacies |
| d-Arg-KKRR-Ornithine-RRR-B-alanine-LSTILQGLYQL-d-Asp-d Thr [ST d3-1] | killed BCBL-1 cells in vitro at similar efficacies |
| d-Arg-KKRR-Ornithine-RRR-B-alanine-LSSILQGLYQL-d-Asp-d Thr [Wt d3-1] | killed BCBL-1 cells in vitro at similar efficacies |
| d-Arg-KKRR-Ornithine-RRR-B-alanine-LSSILQGLYQL-d-Asp-d Ser [DS 3-1] | killed BCBL-1 cells in vitro at similar efficacies |
| d-Arg-KKRR-Ornithine-RRR-β-alanine-LSSILQGLYQLDT [Wt d1-1] | killed BCBL-1 cells in vitro at similar efficacies |
